According to US9695155B2, “Herbicidal substituted pyrimidinyloxy benzene compounds” (E. I. DU PONT DE NEMOURS AND COMPANY, priority 2013, dated 2017):

Legend:
Assay in all cases: Test C preemergence
morningglory = type: in vivo, Ipomoea coccinea; conditions: for Morningglory plant response rating: preemergence, scale 0 (no effect) to 100 (complete control)
How it was run: (§1)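 Sown in loam/sand → sprayed pre-emergence; or grown to 1–4 leaves in peat mix → sprayed post-emergence. Same solvent/surfactant formulation both ways. Greenhouse 13–15 d. Score 0–100 visual.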

galium = type: in vivo, Galium aparine; conditions: for Galium plant response rating: preemergence, scale 0 (no effect) to 100 (complete control)
How it was run: as §1

johnsongrass = type: in vivo, Sorghum halepense; conditions: for Johnsongrass plant response rating: preemergence, scale 0 (no effect) to 100 (complete control)
How it was run: as §1

wheat, winter = type: in vivo, Triticum aestivum; conditions: for Wheat plant response rating: preemergence, scale 0 (no effect) to 100 (complete control)
How it was run: as §1

oilseed rape = type: in vivo, Brassica napus; conditions: for Oilseed Rape plant response rating: preemergence, scale 0 (no effect) to 100 (complete control)
How it was run: as §1

barnyardgrass = type: in vivo, Echinochloa crus-galli; conditions: for Barnyardgrass plant response rating: preemergence, scale 0 (no effect) to 100 (complete control)
How it was run: as §1

Italian ryegrass = type: in vivo, Lolium multiflorum; conditions: for Ryegrass, Italian plant response rating: preemergence, scale 0 (no effect) to 100 (complete control)
How it was run: as §1

blackgrass = type: in vivo, Alopecurus myosuroides; conditions: for Blackgrass plant response rating: preemergence, scale 0 (no effect) to 100 (complete control)
How it was run: as §1

corn = type: in vivo, Zea mays; conditions: for Corn plant response rating: preemergence, scale 0 (no effect) to 100 (complete control)
How it was run: as §1

lambsquarters = type: in vivo, Chenopodium album; conditions: for Lambsquarters plant response rating: preemergence, scale 0 (no effect) to 100 (complete control)
How it was run: as §1

velvetleaf = type: in vivo, Abutilon theophrasti; conditions: for Velvetleaf plant response rating: preemergence, scale 0 (no effect) to 100 (complete control)
How it was run: as §1

ragweed = type: in vivo, Ambrosia elatior; conditions: for Ragweed plant response rating: preemergence, scale 0 (no effect) to 100 (complete control)
How it was run: as §1

soybean = type: in vivo, Glycine max; conditions: for Soybean plant response rating: preemergence, scale 0 (no effect) to 100 (complete control)
How it was run: as §1

giant foxtail = type: in vivo, Setaria faberii; conditions: for Foxtail, Giant plant response rating: preemergence, scale 0 (no effect) to 100 (complete control)
How it was run: as §1

[1] = Preemergence, 62 g ai/ha, scale 0 to 100, 0 no effect, 100 complete control

For `N#Cc1cnn(-c2c(C#N)cccc2Oc2ncc(Cl)cn2)c1` [Compound 200], the “Morningglory plant response rating” value (morningglory; 125 g ai/ha) was 98, the “Morningglory plant response rating” value (morningglory; 250 g ai/ha) was 98 and the “Plant response rating, Morningglory” value (morningglory; [1]) was 95. The “Galium plant response rating” value (galium; 125 g ai/ha) was 100, the “Galium plant response rating” value (galium; 250 g ai/ha) was 100 and the “Plant response rating, Galium” value (galium; [1]) was 100. The “Johnsongrass plant response rating” value (johnsongrass; 125 g ai/ha) was 98, the “Johnsongrass plant response rating” value (johnsongrass; 250 g ai/ha) was 98 and the “Plant response rating, Johnsongrass” value (johnsongrass; [1]) was 98. The “Wheat plant response rating” value (wheat, winter; 125 g ai/ha) was 90, the “Wheat plant response rating” value (wheat, winter; 250 g ai/ha) was 95 and the “Plant response rating, Wheat” value (wheat, winter; [1]) was 65. For the same compound, the “Oilseed Rape plant response rating” value (oilseed rape; 125 g ai/ha) was 98, the “Oilseed Rape plant response rating” value (oilseed rape; 250 g ai/ha) was 98 and the “Plant response rating, Oilseed Rape” value (oilseed rape; [1]) was 98. For the same compound, the “Barnyardgrass plant response rating” value (barnyardgrass; 125 g ai/ha) was 100, the “Barnyardgrass plant response rating” value (barnyardgrass; 250 g ai/ha) was 100 and the “Plant response rating, Barnyardgrass” value (barnyardgrass; [1]) was 100. The “Ryegrass, Italian plant response rating” value (Italian ryegrass; 125 g ai/ha) was 85, the “Ryegrass, Italian plant response rating” value (Italian ryegrass; 250 g ai/ha) was 95 and the “Plant response rating, Ryegrass, Italian” value (Italian ryegrass; [1]) was 70. For the same compound, the “Blackgrass plant response rating” value (blackgrass; 125 g ai/ha) was 98, the “Blackgrass plant response rating” value (blackgrass; 250 g ai/ha) was 98 and the “Plant response rating, Blackgrass” value (blackgrass; [1]) was 95. For the same compound, the “Corn plant response rating” value (corn; 125 g ai/ha) was 60, the “Corn plant response rating” value (corn; 250 g ai/ha) was 75 and the “Plant response rating, Corn” value (corn; [1]) was 5. For the same compound, the “Lambsquarters plant response rating” value (lambsquarters; 125 g ai/ha) was 98, the “Lambsquarters plant response rating” value (lambsquarters; 250 g ai/ha) was 98 and the “Plant response rating, Lambsquarters” value (lambsquarters; [1]) was 98. The “Velvetleaf plant response rating” value (velvetleaf; 125 g ai/ha) was 100, the “Velvetleaf plant response rating” value (velvetleaf; 250 g ai/ha) was 100 and the “Plant response rating, Velvetleaf” value (velvetleaf; [1]) was 100. The “Ragweed plant response rating” value (ragweed; 125 g ai/ha) was 100, the “Ragweed plant response rating” value (ragweed; 250 g ai/ha) was 98 and the “Plant response rating, Ragweed” value (ragweed; [1]) was 100. The “Soybean plant response rating” value (soybean; 125 g ai/ha) was 95, the “Soybean plant response rating” value (soybean; 250 g ai/ha) was 100 and the “Plant response rating, Soybean” value (soybean; [1]) was 90. The “Foxtail, Giant plant response rating” value (giant foxtail; 125 g ai/ha) was 100, the “Foxtail, Giant plant response rating” value (giant foxtail; 250 g ai/ha) was 100 and the “Plant response rating, Foxtail, Giant” value (giant foxtail; [1]) was 100.
